The values that follow come from PubChem BioAssay (NCI).

Test systems include NCI/ADR-RES ovarian; SF-268 CNS; COLO 205 colon; TK-10 renal; SF-295 CNS; HL-60(TB) leukemia; IGROV1 ovarian; BT-549 breast; NCI-H460 lung.
Assay in all cases: NCI anticancer screen, dose series, 48 h

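Tested at 5 concentrations; 48 h exposure; 96-well plates; endpoints linearly interpolated, else capped at highest concentration. GI50 is the concentration that inhibits growth by half. TGI is the concentration that stops growth completely.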

In the case of `COc1nc2c(c(=O)n1C)N(C(C)=O)C1C(N2)OCC(OC(C)=O)C1OC(C)=O` (stereo not drawn), the TGI with NCI/ADR-RES ovarian, with SF-268 CNS, in the assay with COLO 205 colon, in the assay on TK-10 renal, with SF-295 CNS and in the assay with HL-60(TB) leukemia was over 10 µM throughout. The TGI with IGROV1 ovarian, in the assay on BT-549 breast and with NCI-H460 lung was over 10 µM throughout.

Take `COc1cccc(/C=C2/Sc3scc(-c4ccccc4)[n+]3C2=O)c1O`: the TGI with NCI/ADR-RES ovarian was 42.3 µM; in the assay with SF-268 CNS, over 100 µM; in the assay on COLO 205 colon it was over 100 µM; with TK-10 renal, 68.4 µM; with SF-295 CNS, over 100 µM; in the assay with HL-60(TB) leukemia, 39.6 µM. The results for the TGI in the assay with IGROV1 ovarian, in the assay with BT-549 breast and in the assay with NCI-H460 lung were 38.9 µM, 45.1 µM and 37.9 µM, respectively.

Consider `COc1ccc(-c2c(N)n(-c3nc4ccccc4s3)c(=O)c3cc([N+](=O)[O-])ccc23)cc1`, for which the TGI in the assay with NCI/ADR-RES ovarian was 78.1 µM; in the assay with SF-268 CNS, 56.6 µM; in the assay with TK-10 renal it was over 100 µM; in the assay on SF-295 CNS, 97.1 µM; in the assay with HL-60(TB) leukemia it was over 100 µM; in the assay on BT-549 breast it was over 100 µM. The molecule also gave a TGI in the assay on NCI-H460 lung of 32.5 µM.

Take `COCn1c2ccc(OC(C)=O)cc2c2c(=O)oc(N(C)C)nc21`: the TGI in the assay on NCI/ADR-RES ovarian, with COLO 205 colon, with TK-10 renal, in the assay on SF-295 CNS, in the assay on HL-60(TB) leukemia and in the assay on IGROV1 ovarian was over 100 µM throughout. For the same molecule, the TGI in the assay with BT-549 breast and with NCI-H460 lung was over 100 µM each time.

For `O=C(Cn1c2c(c3ccccc31)CCCC2)NC1CCCCC1`, the TGI in the assay on NCI/ADR-RES ovarian, with SF-268 CNS, in the assay on COLO 205 colon, with TK-10 renal, with SF-295 CNS and in the assay on HL-60(TB) leukemia was over 100 µM in each case. Further, the TGI in the assay on IGROV1 ovarian, in the assay on BT-549 breast and in the assay on NCI-H460 lung was over 100 µM in each case.

With `NNC(=O)c1ccc(-n2nnc(C(=O)NN)c2C(=O)NN)cc1`, the TGI in the assay on NCI/ADR-RES ovarian, in the assay with COLO 205 colon, with TK-10 renal, with SF-295 CNS, in the assay with HL-60(TB) leukemia and in the assay with BT-549 breast was over 100 µM in each case. In the assay on NCI-H460 lung, this molecule had a TGI of over 100 µM.

Take `CCCCCCNC(=O)c1cnc(Cl)cn1`: the TGI in the assay on NCI/ADR-RES ovarian was 34.2 µM; with SF-268 CNS it was 31.4 µM; in the assay with COLO 205 colon, 40 µM; with TK-10 renal it was over 100 µM; with SF-295 CNS, 39.4 µM; in the assay with HL-60(TB) leukemia, 47.8 µM. Further, the TGI is 22.8 µM with IGROV1 ovarian, 82.4 µM with BT-549 breast and 37.3 µM in the assay with NCI-H460 lung.

Turning to `C#CCOCC12C=CC(O1)C1C(=O)N(C)C(=O)C12` (stereo not drawn), the TGI in the assay with NCI/ADR-RES ovarian, in the assay on SF-268 CNS, in the assay with COLO 205 colon, in the assay with TK-10 renal, in the assay with SF-295 CNS and in the assay with HL-60(TB) leukemia was over 100 µM each time. Further, the TGI with IGROV1 ovarian, in the assay on BT-549 breast and in the assay on NCI-H460 lung was over 100 µM throughout.

On to `O=C(O[C@H]1[C@@H](O)[C@H](n2cnc3c(Cl)ncnc32)O[C@@H]1COC(c1ccccc1)(c1ccccc1)c1ccccc1)c1ccccc1`, for which the TGI in the assay with NCI/ADR-RES ovarian was over 100 µM; with SF-268 CNS it was 61.3 µM; in the assay on COLO 205 colon, 29.3 µM; in the assay on TK-10 renal, over 100 µM; in the assay on SF-295 CNS, 53.9 µM; with HL-60(TB) leukemia it was 40.7 µM. In addition, the TGI is over 100 µM in the assay on IGROV1 ovarian, 97.7 µM in the assay on BT-549 breast and 64.9 µM in the assay with NCI-H460 lung.

Regarding `COc1ccccc1NC(=O)/C(Cc1nc2ccc([N+](=O)[O-])cc2[nH]c1=O)=N\NC(=O)C[N+](C)(C)C`, the TGI in the assay on NCI/ADR-RES ovarian is over 100 µM; in the assay with SF-268 CNS, over 100 µM; with COLO 205 colon it was over 100 µM; with TK-10 renal it was over 100 µM; in the assay with SF-295 CNS, over 100 µM; in the assay with HL-60(TB) leukemia it was 93.1 µM. In addition, the TGI in the assay on IGROV1 ovarian, in the assay on BT-549 breast and in the assay with NCI-H460 lung was over 100 µM each time.

Take `O=c1oc2ccccc2c(Nc2ccc3c(c2)S(=O)(=O)c2ccccc2O3)c1[N+](=O)[O-]`: the TGI with NCI/ADR-RES ovarian is over 100 µM; in the assay on SF-268 CNS, over 100 µM; in the assay with COLO 205 colon, 47.6 µM; in the assay with TK-10 renal, 62.6 µM; in the assay with SF-295 CNS, 77.7 µM; with HL-60(TB) leukemia, 59.2 µM. For the same molecule, the figures for the TGI in the assay on IGROV1 ovarian, in the assay on BT-549 breast and in the assay on NCI-H460 lung were 97.1 µM, 70.4 µM and 91.7 µM, respectively.

Consider `C[C@@H]1CC[C@H]2C(COCCOCC3=C(C(F)(F)F)O[C@@H]4O[C@@]5(C)CC[C@H]6[C@H](C)CC[C@@H]3[C@@]46OO5)=C(C(F)(F)F)O[C@@H]3O[C@@]4(C)CC[C@@H]1[C@]32OO4`, for which the GI50 was 5.57 µM in the assay with NCI/ADR-RES ovarian; 0.0602 µM in the assay on SF-268 CNS; 0.0188 µM in the assay with COLO 205 colon; 0.0557 µM in the assay with TK-10 renal; under 0.0213 µM with HL-60(TB) leukemia; over 21.1 µM in the assay with IGROV1 ovarian. In addition, the GI50 with BT-549 breast was 0.224 µM; in the assay on NCI-H460 lung it was under 0.0202 µM. Also, the TGI was over 100 µM with NCI/ADR-RES ovarian; over 100 µM in the assay on SF-268 CNS; 1.64 µM in the assay with COLO 205 colon; over 100 µM in the assay with TK-10 renal; over 100 µM in the assay with IGROV1 ovarian; over 100 µM in the assay with BT-549 breast. Moreover, the TGI with NCI-H460 lung is over 100 µM.

Take `C/C=C/[P+](c1ccccc1)(c1ccccc1)c1ccccc1`: the TGI was over 100 µM in the assay with NCI/ADR-RES ovarian; 17.1 µM in the assay with SF-268 CNS; 0.285 µM in the assay with COLO 205 colon; 20.3 µM in the assay with TK-10 renal; 12 µM with SF-295 CNS; 2.78 µM with HL-60(TB) leukemia. For the same molecule, the TGI in the assay on IGROV1 ovarian came out at 18.1 µM; with BT-549 breast, 3 µM; in the assay with NCI-H460 lung, 28.3 µM.

Turning to `CC(=O)Nc1ccccc1SCCSSCCSc1ccccc1NC(C)=O`, the TGI with NCI/ADR-RES ovarian is 94.8 µM; in the assay on SF-268 CNS, over 100 µM; in the assay on COLO 205 colon it was 40.5 µM; with TK-10 renal, over 100 µM; in the assay with SF-295 CNS, 73.7 µM; in the assay on HL-60(TB) leukemia, 44.8 µM. Moreover, the TGI was 46.8 µM in the assay with IGROV1 ovarian, over 100 µM in the assay on BT-549 breast and 68.6 µM in the assay on NCI-H460 lung.

`CC(C)[C@@H]1NC(=O)[C@H]2N=C(O[C@@H]2C)[C@@H]2CCCN2C(=O)[C@H](Cc2ccccc2)NC(=O)[C@@H]2CSC(=N2)[C@@H](Cc2ccccc2)NC(=O)[C@@H]2CSC1=N2`: the TGI in the assay on NCI/ADR-RES ovarian was over 50 µM; in the assay on SF-268 CNS, over 50 µM; in the assay with COLO 205 colon it was over 50 µM; in the assay on TK-10 renal, over 50 µM; with SF-295 CNS, over 50 µM; in the assay with HL-60(TB) leukemia it was 41.3 µM. Moreover, the TGI with IGROV1 ovarian and in the assay on BT-549 breast was over 50 µM throughout.

`CC1CC[C@@H](C(C)C)[C@H](Oc2nnc(C3OC(CO)C(O)C3O)o2)C1` (stereo partly drawn): the TGI in the assay with NCI/ADR-RES ovarian, with SF-268 CNS, in the assay with COLO 205 colon, in the assay on TK-10 renal, with SF-295 CNS and in the assay with HL-60(TB) leukemia was over 100 µM each time. For the same molecule, the TGI in the assay on BT-549 breast and with NCI-H460 lung was over 100 µM in each case.

As to `C/C(=N\Nc1nc2ccccc2s1)c1ncccn1`, the TGI in the assay on NCI/ADR-RES ovarian was 0.0681 µM; in the assay with SF-268 CNS, 5.12 µM; with COLO 205 colon it was 1.19 µM; with SF-295 CNS it was 3.78 µM; in the assay with HL-60(TB) leukemia, over 100 µM; with IGROV1 ovarian, 0.923 µM. The TGI was 3.42 µM in the assay on BT-549 breast and 15.6 µM with NCI-H460 lung.

In the case of `O=C1C2CC=CCC2C(=O)N1n1c(-c2ccccc2)n[nH]c1=O` (stereo not drawn), the TGI in the assay on NCI/ADR-RES ovarian, in the assay with SF-268 CNS, with COLO 205 colon, with TK-10 renal, in the assay with SF-295 CNS and with IGROV1 ovarian was over 100 µM each time. Also, the TGI in the assay with BT-549 breast and in the assay with NCI-H460 lung was over 100 µM each time.

With `CC(=O)OCC(OC(C)=O)C(OC(C)=O)C(C=NN(C(C)=O)S(=O)(=O)c1ccc(/C=C2\NC(=O)NC2=O)cc1)OC(C)=O` (stereo not drawn), the TGI in the assay on NCI/ADR-RES ovarian, in the assay on SF-268 CNS, with COLO 205 colon, with TK-10 renal, with SF-295 CNS and in the assay with IGROV1 ovarian was over 100 µM in each case. Also, the TGI with BT-549 breast and in the assay with NCI-H460 lung was over 100 µM in each case.

For `N#C/C(=C\c1ccccc1)C(=O)Nc1nnc(-c2ccccc2)o1`, the TGI is over 100 µM in the assay on NCI/ADR-RES ovarian; over 100 µM in the assay with SF-268 CNS; 80.4 µM with COLO 205 colon; over 100 µM with TK-10 renal; over 100 µM in the assay on SF-295 CNS; 40.9 µM with HL-60(TB) leukemia. Besides, the TGI with IGROV1 ovarian and with BT-549 breast was over 100 µM in each case.

As to `O=c1cc(-c2cccc(Cl)c2)[nH]c2ncccc12`, the TGI in the assay with NCI/ADR-RES ovarian is over 100 µM; in the assay on SF-268 CNS it was over 88.8 µM; with TK-10 renal it was over 100 µM; in the assay on SF-295 CNS, 0.438 µM; with HL-60(TB) leukemia, 0.152 µM; with IGROV1 ovarian it was over 58.9 µM. Moreover, the TGI in the assay with BT-549 breast and with NCI-H460 lung was over 100 µM in each case.
